Molecules are shown by their SMILES.

In a melting point compilation (Tetko et al.; mined from patent text by program, amines drawn as free bases though some values may be those of a salt) one finds melting point data, which are given here for 34 compounds.

For orientation: melting point means the temperature, or range, at which the solid turns liquid. `O=[N+]([O-])c1ccc(C=Cc2ccc(OCC(O)CO)cc2)cc1` (centres undefined) registered a melting point of 147 °C. Under `NC1([C@@H]2CCN(c3nc4c(cc3F)c(=O)c(C(=O)O)cn4[C@@H]3C[C@@H]3F)C2)CC1` stands 232 to 234 °C. In the case of `CC(=O)NCCNCc1ccc(-c2cc3ncnc(Nc4ccc5[nH]ccc5c4)c3s2)cc1`, the melting point lay within 142 to 155 °C. Under `NS(=O)(=O)c1ccc2c(c1)C(=O)c1ccccc1C2=O` stands 258 to 261 °C; under `COC(=O)Cn1sc2nc(C)cc(C)c2c1=O`, 89 to 91 °C.

The compound `CCOc1ncc(NC(=O)Nc2c(CC)cccc2CC)c(-c2ccccc2Cl)n1` showed a melting point of 190 to 191 °C. In the case of `CCn1c2ccccc2c2ccncc21` it was 195 to 196 °C; in that of `COc1ccc2c(Cl)cc(-c3ccc(Cl)cc3)nc2c1`, 153 to 155 °C. In the case of `CC(C)Oc1ccc(-n2c(-c3ccc(C(=O)O)cc3)c(C(=O)O)c3cc(Oc4ccc(C(F)(F)F)cc4)ccc32)cc1` it was 268 to 270 °C; in that of `O=C(c1cccc([N+](=O)[O-])c1)c1ccc(Oc2ccccc2)c([N+](=O)[O-])c1`, 135 to 136 °C; in that of `O=C(O)CCCCCCCCCCc1ccco1`, 40 to 41 °C.

As to `CC(C)c1ccc(NC(=O)C2CCCc3c(OCc4ccccc4)cccc32)cc1` (centres undefined), the melting point is 170 °C. Under `CC(=O)c1ccc(OCC(O)COc2ccc(C#N)cc2)cc1O` (centres undefined) stands 162 to 163 °C. Under `CC(C)(C)NC(=O)C1CCN(C(=O)CCl)CC1` stands 140 to 142 °C; under `O=C(Nc1ccc(CN2CCOCC2)c2ccccc12)c1cc(F)cc(N2CCOCC2)c1`, 192 to 193 °C. In the case of `CCNc1cn(-c2cccnc2)nc1Cl` it was 89 to 90 °C. As to `Cc1nn(-c2ccc(C(F)(F)F)cn2)cc1COc1cc(CO)n(C)n1`, the melting point lay within 128 to 129 °C. In the case of `CC(C)c1ccc2c(c1)C(=O)CC21CNC(=O)C1` (centres undefined) it was 165 to 167 °C.

Compound `CCOCCc1cc(OC)c(-c2ccc(C[C@H](NC(=O)c3c(F)cccc3F)C(=O)O)cc2)c(OC)c1` registered a melting point of 63 to 70 °C. Take `CCC(=CC(CNC(=O)c1sc(C)nc1C)=NO)C(C)[N+](=O)[O-]` (centres undefined): the melting point lay in the range of 158 to 159 °C. In the case of `COC(=O)[C@@H]1C[C@H](OC(=O)c2ccccc2)C(=O)[C@H]2[C@@]1(C)CC[C@H]1C(=O)O[C@H](c3ccoc3)C[C@]21C` it was 165 to 170 °C.

`CN(c1cc(OC(F)(F)F)cc2cc(C3=NCC(CCO)S3)[nH]c12)S(=O)(=O)c1cccs1` (centres undefined) came in with a melting point of 152 to 153 °C. In the case of `CC(=O)c1ccc2c(c1)C(C(Cl)(Cl)Cl)OC(C(Cl)(Cl)Cl)O2` (centres undefined) it was 104 to 105 °C. The compound `O=S(=O)(c1ccc(Cl)cc1)C(c1cccc(CCc2ccccn2)n1)c1cc(F)ccc1F` (centres undefined) came in with a melting point of 88 to 89 °C. In turn, `COn1c(-c2ccccc2)nc2ccc(Cn3ccnc3)cc21` gave a melting point of 142 °C.

Turning to `COc1ccc(Cc2c(NC(C)C(C)(C)C)c(=O)c2=O)cc1` (centres undefined), the melting point was in the range of 137 to 138 °C. In the case of `CC(=S)Nc1ccc(C(=O)O)cc1` it was 220 °C. In the case of `N=C(N)c1ccc(-c2cnc(-c3ccc(C(=N)N)cc3)nc2)cc1` it was above 300 °C; in that of `N#CNc1nnc(-c2ccccc2Nc2cccc(C(F)(F)F)c2)o1`, above 230 °C. Under `CC1(CC(=O)O)CCCC1=O` (centres undefined) stands 70 to 72 °C. Consider `CN1CC(=O)Nc2ccc(C(F)(F)F)cc2C1=O`, for which the melting point is 203 to 206 °C. Under `CCCN(C(=O)OCC(Cl)(Cl)Cl)C1CN(C(=O)Nc2ccc(C(F)(F)F)cc2)N=C1c1ccc(OC(F)F)c(C)c1` (centres undefined) stands 165 to 166 °C; under `Cc1cccc(C)c1-n1c(C)nnc1S`, 189 to 192 °C. Under `O=C1Cc2cc(NC(=O)C(=O)N3CCC(Cc4ccc(Cl)cc4)CC3)ccc2N1` stands 195 °C.
